# From patent publication US20220400680A1, “USE OF ACYLCYANAMIDES OR SALTS THEREOF FOR REGULATING PLANT GROWTH” (Alzchem Trostberg GmbH, priority 2019, published 2022)
# What was measured:
# [1] = system: Table cherry, type Burlat (C3); test: Greenhouse test, cut cherry branches C3 dipped in test solution, bud development stage; assay type: in vivo, Prunus avium; set-up: key to Bud development stage, cherry branches C3: Stage 0: Buds unchanged; Stage 1: Buds slightly swollen, first green tips visible; Stage 2: strongly swollen, green buds; Stage 3: Buds before breaking open, leaf or flower root already visible; Stage 4: Flower buds fully developed, but still closed, white petals already visible. In the case of the grapevine, stage 4 was the unfolding of the first leaves; Stage 5: Flowers fully open or, in the case of grapevine, unfolding of the flower roots (“Gescheine”) on the fully leafed sprouts; details: for Dormancy-breaking effect according to the definition, cherry C3: stage 4 reached or exceeded after 27 days vs negative control
# Experimental: Greenhouse tests were conducted using cut fruit tree branches placed in water jars and maintained under controlled conditions with temperature regulation at approximately 22° C. and natural lighting. C3: Table Cherry, Type Burlat Table cherry: Prunus avium type Bigarreau Burlat or […] is a strong-growing somewhat sparse growing sweet cherry tree with horizontal side sprouts. The type has been known since 1930 and is one of the most important types in commercial cultivation. […] Medium but regular yields identify the type as a secondary type for early and dry areas. […] The test solutions were prepared directly, i.e. without intermediate preparation of a concentrate. For each of the test substances A-1 to A-13, an aqueous solution of 0.15 mol of the test substance and 0.15 g BreakThru® OE-446 was prepared and filled up to a total of 500 g with water. Of bis-cyanamides A-14 and A-15, 0.075 mol each was filled up to 500 g in an analogous manner. These test solutions (in combination with the above 4 species/types Cx) were given the test numbers Cx-A1 to Cx-A15. […] This was done with the following evaluation scale: • Stage 0: […] Flower buds fully developed, but still closed, white petals already visible. […] Flowers fully open or, in the case of grapevine, unfolding of the flower roots (“[…]”) on the fully leafed sprouts.
# [2] = system: Table apple, type Boiken apple (C1); test: Greenhouse test, cut apple branches C1 dipped in test solution, bud development stage; assay type: in vivo, Malus domestica; set-up: key to Bud development stage, apple branches C1: Stage 0: Buds unchanged; Stage 1: Buds slightly swollen, first green tips visible; Stage 2: strongly swollen, green buds; Stage 3: Buds before breaking open, leaf or flower root already visible; Stage 4: Flower buds fully developed, but still closed, white petals already visible. In the case of the grapevine, stage 4 was the unfolding of the first leaves; Stage 5: Flowers fully open or, in the case of grapevine, unfolding of the flower roots (“Gescheine”) on the fully leafed sprouts; details: for Good to very good dormancy-breaking effect, apple C1: stage 4 reached or exceeded after 27 days vs negative control; for Dormancy-breaking effect according to the definition, apple C1: stage 4 reached or exceeded after 36 days vs negative control
# Experimental: Greenhouse tests were conducted using cut fruit tree branches placed in water jars and maintained under controlled conditions with temperature regulation at approximately 22° C. and natural lighting. C1: Table Apple, Type Boiken Apple Table apple: Malus domestica type Boiken first described in 1828 in Bremen after Deichvogt Boiken. Apple type for rough locations and for almost every soil suitable scattered fruit type, whereby heavy soils and not too warm locations are required. Tree growth initially strong, later medium. Older crowns become broadly spherical and are loosely branched. Flowering starting medium-late and long lasting, petals large with little pink. Yield starting late (October) and irregular; with long shelf life and pressure resistance. […] The test solutions were prepared directly, i.e. without intermediate preparation of a concentrate. For each of the test substances A-1 to A-13, an aqueous solution of 0.15 mol of the test substance and 0.15 g BreakThru® OE-446 was prepared and filled up to a total of 500 g with water. Of bis-cyanamides A-14 and A-15, 0.075 mol each was filled up to 500 g in an analogous manner. These test solutions (in combination with the above 4 species/types Cx) were given the test numbers Cx-A1 to Cx-A15. […] This was done with the following evaluation scale: • Stage 0: […] Flower buds fully developed, but still closed, white petals already visible. […] Flowers fully open or, in the case of grapevine, unfolding of the flower roots (“[…]”) on the fully leafed sprouts.
# [3] = system: Grape, type Pinot Noir (C4); test: Greenhouse test, cut wine sprouts C4 dipped in test solution, bud development stage; assay type: in vivo, Vitis vinifera subsp. vinifera; set-up: key to Bud development stage, wine sprouts C4: Stage 0: Buds unchanged; Stage 1: Buds slightly swollen, first green tips visible; Stage 2: strongly swollen, green buds; Stage 3: Buds before breaking open, leaf or flower root already visible; Stage 4: Flower buds fully developed, but still closed, white petals already visible. In the case of the grapevine, stage 4 was the unfolding of the first leaves; Stage 5: Flowers fully open or, in the case of grapevine, unfolding of the flower roots (“Gescheine”) on the fully leafed sprouts
# Experimental: Greenhouse tests were conducted using cut fruit tree branches placed in water jars and maintained under controlled conditions with temperature regulation at approximately 22° C. and natural lighting. C4: Grape, Type Pinot Noir Grape: Vitis vinifera subsp. vinifera type Pinot Noir is an important and high quality red wine type that has existed for possibly 2000 years. It is cultivated all over the world because the type produces high quality red wines and has sufficient winter frost resistance. The type requires early and good areas with deep, warm, medium-heavy and fertile soils with good water supply. Pinot Noir produces regular, medium-high to high yields. However, there are a large number of clones that differ in yield, berry size and looseness. […] The test solutions were prepared directly, i.e. without intermediate preparation of a concentrate. For each of the test substances A-1 to A-13, an aqueous solution of 0.15 mol of the test substance and 0.15 g BreakThru® OE-446 was prepared and filled up to a total of 500 g with water. Of bis-cyanamides A-14 and A-15, 0.075 mol each was filled up to 500 g in an analogous manner. These test solutions (in combination with the above 4 species/types Cx) were given the test numbers Cx-A1 to Cx-A15. […] This was done with the following evaluation scale: • Stage 0: […] Flower buds fully developed, but still closed, white petals already visible. […] Flowers fully open or, in the case of grapevine, unfolding of the flower roots (“[…]”) on the fully leafed sprouts.
# [4] = system: Table apple, type Zabergäu-Renette (C2); test: Greenhouse test, cut apple branches C2 dipped in test solution, bud development stage; assay type: in vivo, Malus domestica; set-up: key to Bud development stage, apple branches C2: Stage 0: Buds unchanged; Stage 1: Buds slightly swollen, first green tips visible; Stage 2: strongly swollen, green buds; Stage 3: Buds before breaking open, leaf or flower root already visible; Stage 4: Flower buds fully developed, but still closed, white petals already visible. In the case of the grapevine, stage 4 was the unfolding of the first leaves; Stage 5: Flowers fully open or, in the case of grapevine, unfolding of the flower roots (“Gescheine”) on the fully leafed sprouts; details: for Dormancy-breaking effect according to the definition, apple C2: stage 4 reached or exceeded after 36 days vs negative control
# Experimental: Greenhouse tests were conducted using cut fruit tree branches placed in water jars and maintained under controlled conditions with temperature regulation at approximately 22° C. and natural lighting. C2: Table Apple, Type […] Table apple: Malus domestica type […] first developed in 1885 as a chance seedling in Hausen a.d. Zaber/Baden-Württemberg and initially grown as 'Hausener Graue […]'. No defined storage type; requires heavy soils (loam). Tree growth initially strong with oblique upright leading branches, later medium with flat branches. Crown broad and flat-spherical with flat fruiting wood. Leaves large, broad oval and with clearly separated tip. Triploid type with late and long-lasting flowering. Yield starting early, medium high and somewhat alternate. […] The test solutions were prepared directly, i.e. without intermediate preparation of a concentrate. For each of the test substances A-1 to A-13, an aqueous solution of 0.15 mol of the test substance and 0.15 g BreakThru® OE-446 was prepared and filled up to a total of 500 g with water. Of bis-cyanamides A-14 and A-15, 0.075 mol each was filled up to 500 g in an analogous manner. These test solutions (in combination with the above 4 species/types Cx) were given the test numbers Cx-A1 to Cx-A15. […] This was done with the following evaluation scale: • Stage 0: […] Flower buds fully developed, but still closed, white petals already visible. […] Flowers fully open or, in the case of grapevine, unfolding of the flower roots (“[…]”) on the fully leafed sprouts.
# [5] = T1 (14 d), 0.15 mol (A-14, A-15: 0.075 mol) per 500 g solution
Compound,"Bud development stage, cherry branches C3 [1, 5]","Bud development stage, cherry branches C3 ([1]; T2 (16 d))","Bud development stage, cherry branches C3 ([1]; T3 (21 d))","Bud development stage, cherry branches C3 ([1]; T4 (27 d))","Bud development stage, cherry branches C3 ([1]; T5 (36 d))","Bud development stage, cherry branches C3 ([1]; T6 (56 d))","Bud development stage, apple branches C1 [2, 5]","Bud development stage, apple branches C1 ([2]; T2 (16 d))","Bud development stage, apple branches C1 ([2]; T3 (21 d))","Bud development stage, apple branches C1 ([2]; T4 (27 d))","Bud development stage, apple branches C1 ([2]; T5 (36 d))","Bud development stage, apple branches C1 ([2]; T6 (56 d))","Bud development stage, wine sprouts C4 [3, 5]","Bud development stage, wine sprouts C4 ([3]; T2 (16 d))","Bud development stage, wine sprouts C4 ([3]; T3 (21 d))","Bud development stage, wine sprouts C4 ([3]; T4 (27 d))","Bud development stage, wine sprouts C4 ([3]; T5 (36 d))","Bud development stage, wine sprouts C4 ([3]; T6 (56 d))","Bud development stage, apple branches C2 [4, 5]","Bud development stage, apple branches C2 ([4]; T2 (16 d))",also measured
"CCCCCC(=O)NC#N.[Na] [Example A-9, Sodium hexanoyl cyanamide]",0,1,2,3,5,5,0,1,1,2,2,3,0,0,0,2,5,5,0,1,"Dormancy-breaking effect according to the definition, wine C4 ([3]; stage 4 reached or exceeded after 36 days vs negative control): dormancy-breaking effect; Bud development stage, apple branches C2 ([4]; T3 (21 d)): 4; Bud development stage, apple branches C2 ([4]; T4 (27 d)): 5; Bud development stage, apple branches C2 ([4]; T5 (36 d)): 5; Bud development stage, apple branches C2 ([4]; T6 (56 d)): 5; Good to very good dormancy-breaking effect, apple C2 ([4]; stage 4 reached or exceeded after 27 days vs negative control): good to very good dormancy-breaking effect; Dormancy-breaking effect according to the definition, apple C2 [4]: dormancy-breaking effect"
"CCCC(=O)NC#N.[Na] [Example A-6, Sodium butyryl cyanamide]",1,1,3,5,5,5,2,3,4,5,5,5,0,0,0,1,2,5,0,0,"Dormancy-breaking effect according to the definition, cherry C3 [1]: dormancy-breaking effect; Good to very good dormancy-breaking effect, apple C1 [2]: good to very good dormancy-breaking effect; Dormancy-breaking effect according to the definition, apple C1 [2]: dormancy-breaking effect; Bud development stage, apple branches C2 ([4]; T3 (21 d)): 1; Bud development stage, apple branches C2 ([4]; T4 (27 d)): 2; Bud development stage, apple branches C2 ([4]; T5 (36 d)): 5; Bud development stage, apple branches C2 ([4]; T6 (56 d)): 5; Dormancy-breaking effect according to the definition, apple C2 [4]: dormancy-breaking effect"
"CCCCCCCCCCCC(=O)NC#N.[Na] [Example A-10, Sodium dodecanoyl cyanamide]",1,2,4,4,4,5,1,2,4,5,5,5,0,0,0,1,2,4,0,0,"Good to very good dormancy-breaking effect, cherry C3 ([1]; stage 4 reached or exceeded after 21 days vs negative control): good to very good dormancy-breaking effect; Dormancy-breaking effect according to the definition, cherry C3 [1]: dormancy-breaking effect; Good to very good dormancy-breaking effect, apple C1 [2]: good to very good dormancy-breaking effect; Dormancy-breaking effect according to the definition, apple C1 [2]: dormancy-breaking effect; Bud development stage, apple branches C2 ([4]; T3 (21 d)): 0; Bud development stage, apple branches C2 ([4]; T4 (27 d)): 1; Bud development stage, apple branches C2 ([4]; T5 (36 d)): 2; Bud development stage, apple branches C2 ([4]; T6 (56 d)): 4"
